According to patent publication US7053121B2, “Compositions and methods for regulating circadian rhythms” (priority 2001, dated 2006):

Key:
[1] = test system: Gal4DBD fusions of CLOCK and MOP4 with VP16 fusions of nuclear receptors; assay: Mammalian two-hybrid analysis in CV-1 cells; assay type: cell-based, human; conditions: ligand 1 μM, FIG. 1B
Protocol: NIH 3T3 cells were seeded at 20,000 cells/well in a 48-well dish and transfected by FuGENE™ liposome-mediated transfer (Roche Molecular Biochemicals, Indianapolis, Ind.) with internal control pRLSV40 (5 ng), pGL3M34 reporter, CMX-MOP4 (100 ng) or CMX-CLOCK (100 ng) and CMX-BMAL1 (100 ng) in the presence or absence of CMX-RXRα or CMX-RARα (25–100 ng). CMX-MOP4ΔAAA (100 ng), pCDNA3.1MOP4Δ727 (100 ng), pCDNA3.1MOP4Δ624 (100 ng), and CMX-MOP4Δ635–645 (100 ng) were used instead of CMXMOP4 where indicated. The amount of DNA in each transfection was kept constant by addition of empty pCDNA3 vector. […] Forty-eight hours post-transfection, cells were harvested to determine luciferase activity by luminometry (Dual-Luciferase® Reporter Assay System, Promega Corporation, Madison, Wis.). The procedure for mammalian two-hybrid analysis was identical except that CV-1 cells were used. MH100TK-LUC (100 ng) reporter, CMX-Gal4DBD-MOP4 (20 ng), CMX-Gal4DBD-CLOCK (20 ng) in the presence of, CMX-VP16-PPARγ (20 ng), CMX-VP16-RARα (20 ng), CMX-VP16-TRβ (20 ng), CMX-RXRα (20 ng) or CMX-VP16-PPARα (20 ng). […] For all the figures, each value is the mean of three independent experiments +/− standard error. Each experiment included six replicates from a single assay.

[2] = test system: interaction between MOP4 and CLOCK with RXRα and RARα; conditions: YRG2 cells, ligand 1 μM, FIG. 1A
Protocol: A liquid β-galactosidase activity assay was utilized to assess the effect of ligands on these novel interactions.
The library was prepared by ligating XhoI/EcoRI-adapted, phosphorylated, oligo-dT-primed cDNA, prepared from polyadenylated RNA extracted from 1×10^8 human aortic vascular smooth muscle cells (Cambrex Corporation, East Rutherford, N.J.), into the HybriZAP® II vector and packaged with Gigapack® III Gold packaging extract (Stratagene, La Jolla, Calif.) into a primary lambda library. […] RXRα-interacting clones were selected on media lacking tryptophan, leucine, and histidine, supplemented with 10 mM 3-amino-triazol.

[3] = target: T1, CLOCK and RARα (Homo sapiens, UniProt P10276); assay: In vitro immunoprecipitation of CLOCK and RARα; assay type: binding; conditions: in vitro translated proteins, incubation in presence of retinoic acid
T1 construct: made in house; host or cells: coupled in vitro transcription-translation (labelled protein); E. coli BL21(DE3) (purified protein, inferred)
T1 sequence (P10276 1-462): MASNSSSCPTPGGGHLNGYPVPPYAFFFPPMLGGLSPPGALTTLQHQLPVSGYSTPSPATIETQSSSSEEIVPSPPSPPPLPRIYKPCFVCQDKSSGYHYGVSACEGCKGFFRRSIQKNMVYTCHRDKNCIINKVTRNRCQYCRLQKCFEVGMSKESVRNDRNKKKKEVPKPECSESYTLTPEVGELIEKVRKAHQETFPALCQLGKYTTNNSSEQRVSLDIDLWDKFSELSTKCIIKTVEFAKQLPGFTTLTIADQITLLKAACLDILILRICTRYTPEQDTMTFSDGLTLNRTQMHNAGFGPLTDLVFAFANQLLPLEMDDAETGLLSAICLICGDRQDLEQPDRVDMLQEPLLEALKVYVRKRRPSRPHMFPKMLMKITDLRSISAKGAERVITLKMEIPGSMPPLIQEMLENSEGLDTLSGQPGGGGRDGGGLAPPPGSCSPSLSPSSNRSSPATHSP
T1 sequence (O15516 1-846 partner): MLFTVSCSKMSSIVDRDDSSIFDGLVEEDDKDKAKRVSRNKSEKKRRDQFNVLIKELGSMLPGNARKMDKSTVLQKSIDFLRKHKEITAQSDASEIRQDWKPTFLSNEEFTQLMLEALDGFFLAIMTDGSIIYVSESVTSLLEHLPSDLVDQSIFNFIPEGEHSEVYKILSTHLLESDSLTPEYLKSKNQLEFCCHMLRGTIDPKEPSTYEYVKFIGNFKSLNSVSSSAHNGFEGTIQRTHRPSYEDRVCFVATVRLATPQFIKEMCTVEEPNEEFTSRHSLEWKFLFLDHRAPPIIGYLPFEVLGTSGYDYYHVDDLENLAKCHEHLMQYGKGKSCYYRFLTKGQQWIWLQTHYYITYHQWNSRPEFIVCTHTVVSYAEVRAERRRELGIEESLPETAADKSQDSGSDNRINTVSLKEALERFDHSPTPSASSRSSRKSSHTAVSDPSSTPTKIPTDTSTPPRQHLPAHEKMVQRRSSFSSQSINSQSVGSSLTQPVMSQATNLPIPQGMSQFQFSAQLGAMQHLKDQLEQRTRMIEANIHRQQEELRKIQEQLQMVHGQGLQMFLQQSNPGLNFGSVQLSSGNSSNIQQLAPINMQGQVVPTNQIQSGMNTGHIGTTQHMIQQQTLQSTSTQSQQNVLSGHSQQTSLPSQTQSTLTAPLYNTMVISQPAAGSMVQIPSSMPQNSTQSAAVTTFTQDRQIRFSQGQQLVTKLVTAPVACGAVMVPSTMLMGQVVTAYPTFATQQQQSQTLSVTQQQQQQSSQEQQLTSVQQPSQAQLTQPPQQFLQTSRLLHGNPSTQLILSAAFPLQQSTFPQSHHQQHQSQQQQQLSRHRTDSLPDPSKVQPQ
Protocol: [^35S]Methionine-labeled RARα and CLOCK were incubated with purified CLOCK and RARα protein, respectively for 30 min. at room temperature in the presence or absence of tRA. The complex was immunoprecipitated using anti-CLOCK and anti-RAR antibodies (Santa Cruz Biotechnology, Inc., Santa Cruz, Calif.) and protein A-agarose (Gibco, Carlsbad, Calif.) was added. Beads were washed extensively and bound proteins separated by SDS-PAGE and analyzed by a PhosphorImager.

[4] = test system: hPER2 transcript oscillation in VSMC; assay: Serum shock and ribonuclease protection analysis of hPER2 mRNA in VSMC; assay type: cell-based, human
Protocol: In these experiments, it was determined that oscillating clock gene expression could be induced by serum shock in VSMC as had been reported in Rat and 3T3 fibroblasts (Balsalobre, et al. (1998) Cell 93:929–937; Akashi, et al. (2000) Genes Dev. 14:645–649). Following addition of 50% serum for two hours, hPER2 mRNA peaks very rapidly at T4 (fours hours after serum shock) and enters a cyclical expression pattern, peaking at T24 and T48 (FIG. 5A). Adding tRA at T17 and leaving it in the culture for the remainder of the experiment, delayed the peak of hPER2 mRNA from T24 to T28. […] When tRA was added at T17 and removed at T19, the first hPER2 peak was again delayed to T28. However, the drop in hPER2 levels was followed by an increase, resulting in a second cycle which peaked at T52 (FIG. 5C). Thus, tRA phase delayed the hPER oscillation by four hours, which is consistent with the observation that ligand-bound RARα prevents CLOCK:BMAL1 heterodimer from activating transcription through its E-box. Removal of the ligand restored the ability of the CLOCK:BMAL1 heterodimer to induce hPER2 expression, but the phase of the cycle was delayed.
The coincidental circadian variability of catecholamines and blood pressure (Hossmann, et al. (1980) Cardiovasc. Res. 14:125–129) led to the investigation of whether catecholamines can phase-shift a core clock oscillator in VSMC. Norepinephrine and epinephrine (10 μM), were added at T16 and left in the culture until T18. This phase advanced the hPER2 mRNA peak to T20 instead of T24 (FIG. 5D).
VSMC (3500 cells/cm^2) were plated on 10 cm^2 plates 6 days before the experiment and were serum-starved for 48 hours after reaching confluence. Serum shock was carried out using 50% fetal bovine serum (Gibco, Carlsbad, Calif.) as previously described (Balsalobre, et al. (1998) Cell 93:929–937) and cells were harvested at the indicated time points and stored at −80° C. Total RNA was extracted from each sample using the RNAwiz™ reagent (Ambion, Austin, Tex.). […] RNA (5 μg) from each time point was hybridized for 16 hour with 8×10^4 cpm of the probe at 42° C. and digested with RNaseA/T1 (SequaGel System, National Diagnostics, Atlanta, Ga.), dried and analyzed by a PhosphorImager. The data was quantitated using ImageQuant version 1.2 software (Amersham Pharmacia Molecular Dynamics, Piscataway, N.J.) All results represent a mean of at least two independent experiments and are expressed as the ratio of the MOP4 or PER2 signal divided by the Actin signal at the same time point.

| Compound | interaction of MOP4 and CLOCK with RXRα and RARα [1] | strength of the interaction between MOP4 and CLOCK with RARα [2] | association of CLOCK and RARα (coimmunoprecipitation) [3] | hPER2 transcript oscillation ([4]; addition at T17, FIG. 5B) | hPER2 transcript oscillation ([4]; addition at T17 and removal at T19, FIG. 5C) | phase delay of the hPER oscillation ([4]; tRA added at T17) | subsequent hPER2 levels ([4]; tRA added at T17 and left in culture, FIG. 5B) |
| --- | --- | --- | --- | --- | --- | --- | --- |
| CC1=C(/C=C/C(C)=C\C=C\C(C)=C\C(=O)O)C(C)(C)CCC1 [9cisRA, 9-cis-retinoic acid] | ligand-dependent manner | – | – | – | – | – | – |
| CC1=C(/C=C/C(C)=C/C=C/C(C)=C/C(=O)O)C(C)(C)CCC1 [tRA, all-trans retinoic acid] | ligand-dependent manner | increase the strength of the interaction | increase in association | delayed | altered | four | dropped and did not peak again |
